In publication PMC12254355 (Nature Communications, 2025):
Ends that are not written are not given here.

Experiments:
[1] = tested on: E. faecium ATCC 700221 - VRE; settings: ATCC 700221, 24 h
HEK293T cells = settings: for CC50 vs HEK293T cells (source data of Figure 4a): 24 h
P. aeruginosa PAO1 = settings: PAO1, 24 h
P. aeruginosa PA14 = settings: PA14, 24 h
K. pneumoniae ATCC 13883 = settings: ATCC 13883, 24 h
E. coli ATCC 11775 = settings: ATCC 11775, 24 h
human red blood cells = settings: pH 7.4
E. coli AIC221 = settings: AIC221, 24 h
A. baumannii ATCC 19606 = settings: ATCC 19606, 24 h
S. aureus ATCC 12600 = settings: ATCC 12600, 24 h
[2] = tested on: S. aureus ATCC BAA-1556 - MRSA; settings: ATCC BAA-1556, 24 h

Sequence	Minimal Inhibitory Concentration, E. faecium ATCC 700221 - VRE (+) [1] [µmol/L]	SIcytotoxicity (HEK293T cells)	CC50 vs HEK293T cells (source data of Figure 4a) (HEK293T cells) [µM]	Minimal Inhibitory Concentration, P. aeruginosa PAO1 (-) (P. aeruginosa PAO1) [µmol/L]	Minimal Inhibitory Concentration, P. aeruginosa PA14 (-) (P. aeruginosa PA14) [µmol/L]	Minimal Inhibitory Concentration, K. pneumoniae ATCC 13883 (-) (K. pneumoniae ATCC 13883) [µmol/L]	Minimal Inhibitory Concentration, E. coli ATCC 11775 (-) (E. coli ATCC 11775) [µmol/L]	HC50 (human red blood cells)	Minimal Inhibitory Concentration, E. coli AIC221 (-) (E. coli AIC221) [µmol/L]	Minimal Inhibitory Concentration, A. baumannii ATCC 19606 (-) (A. baumannii ATCC 19606) [µmol/L]	CC50 vs HEK293T cells (HEK293T cells) [µM]	Minimal Inhibitory Concentration, S. aureus ATCC 12600 (+) (S. aureus ATCC 12600) [µmol/L]	Minimal Inhibitory Concentration, S. aureus ATCC BAA-1556 - MRSA (+) [2] [µmol/L]
KNKRFIRNLRSNLYQKIIKSTKSLL [UniprotKB-14]	32	5.7	45.94	32	32	32	32	7.733e+045	8				
LKLKSILGKLGVIL [UniprotKB-4]		0.7	10.49			64		3.938e+054		64	10		
KLKKLRKWIYRIV [UniprotKB-8]	16	3.5	27.64			64	16	636.4		32			
KLLKIGLKSFARVLKKVL [UniprotKB-1]		2.5	10.13	8	8		8	34.9	4		10	16	
KIKWLKAMKSIAKFIAKK [Arachnoserver-5]	8	7.0	13.96	4	2	2	2	46.7	2	8			
KLSGISKVLRAIAKFFK [Arachnoserver-28]	8	0.8	6.347	32	8	32	64	38.2	32	32	6	32	32
RKFNWGKLFKSAKKLYKTGKKLSKNKNVRKALKFGK [Arachnoserver-7]	8	6.8	6.812	8	4	64	8	7.0	1	8	7		
KIKWFKTMKSLAKFLAK [Arachnoserver-33]	32	8.0		32	8	4	8	144.1	4	8			
KFSVFSKILRSIAKVF [Arachnoserver-18]	8	3.1	12.34	32	16		4	53.5	4	8		16	16
KRLRAKMLNSKFIKLIKR [Conoserver-1]	32	5.2		32	32			1.085e+083	16				32
KLLKIGLKSFARVLKKVL [Arachnoserver-1]	16	6.6	26.22		8	8	8	82.7	4	16		16	16
RRVKRFKKFFRKLKKSVKKRAKEFFK [ISOB-1]	16	28.9		4	8		16	2001.0	8	64		64	
KNKRFIRNLRSNLYQKIIKSTKSLL [Arachnoserver-9]	16	2.9	23.56	16	16	16	16	4947.0	8	32			
